Series [1] can be described thus: Dissociation constant, pKa of the compound by UV spectrometric titration method. Type of series: physicochemical.
Series [2] is described as follows: Octanol/water partition coefficient, logD of compound at pH 7.4 measured after 4 hrs by shake flask method. Type of series: physicochemical.
Series [3] has as its target Voltage-gated inwardly rectifying potassium channel KCNH2 (Homo sapiens, UniProt Q12809). In words: Inhibition of human ERG. Format: toxicity.
Series [4] concerns the target Cytochrome P450 3A4 (Homo sapiens, UniProt P08684). In words: Inhibition of CYP3A4 (unknown origin). Format: ADME.
Series [5] in a line: Dose normalized Cmax in Balb/c mouse at 10 mg/kg, po and 1 mg/kg, iv administered as cassette dose measured upto 24 hrs by LC/MS/MS analysis. Type of series: ADME, organism-based. The note with it: in vivo.
Series [6] can be described thus: Oral bioavailability in Balb/c mouse at 10 mg/kg administered as cassette dose measured upto 24 hrs by LC/MS/MS analysis. Type of series: ADME, organism-based. The note with it: in vivo.
A short description of series [7]: Clearance in Balb/c mouse at 10 mg/kg, po or 1mg/kg, iv administered as cassette dose measured upto 24 hrs by LC/MS/MS analysis. Type of series: ADME, organism-based. The note with it: in vivo.
Series [8] in a line: Volume of distribution at steady state in Balb/c mouse at 10 mg/kg, po or 1 mg/kg, iv administered as cassette dose measured upto 24 hrs by LC/MS/MS analysis. Format: ADME, organism-based. The settings on record: in vivo, read-out: Vdss.
A short description of series [9]: MRT in Balb/c mouse at 10 mg/kg, po or 1 mg/kg, iv administered as cassette dose measured upto 24 hrs by LC/MS/MS analysis. Type of series: ADME, organism-based. The note with it: in vivo.
The target in series [10] is T1, Toll-like receptor 7 (Homo sapiens, UniProt Q9NYK1).
T1 sequence (Q9NYK1 whole entry): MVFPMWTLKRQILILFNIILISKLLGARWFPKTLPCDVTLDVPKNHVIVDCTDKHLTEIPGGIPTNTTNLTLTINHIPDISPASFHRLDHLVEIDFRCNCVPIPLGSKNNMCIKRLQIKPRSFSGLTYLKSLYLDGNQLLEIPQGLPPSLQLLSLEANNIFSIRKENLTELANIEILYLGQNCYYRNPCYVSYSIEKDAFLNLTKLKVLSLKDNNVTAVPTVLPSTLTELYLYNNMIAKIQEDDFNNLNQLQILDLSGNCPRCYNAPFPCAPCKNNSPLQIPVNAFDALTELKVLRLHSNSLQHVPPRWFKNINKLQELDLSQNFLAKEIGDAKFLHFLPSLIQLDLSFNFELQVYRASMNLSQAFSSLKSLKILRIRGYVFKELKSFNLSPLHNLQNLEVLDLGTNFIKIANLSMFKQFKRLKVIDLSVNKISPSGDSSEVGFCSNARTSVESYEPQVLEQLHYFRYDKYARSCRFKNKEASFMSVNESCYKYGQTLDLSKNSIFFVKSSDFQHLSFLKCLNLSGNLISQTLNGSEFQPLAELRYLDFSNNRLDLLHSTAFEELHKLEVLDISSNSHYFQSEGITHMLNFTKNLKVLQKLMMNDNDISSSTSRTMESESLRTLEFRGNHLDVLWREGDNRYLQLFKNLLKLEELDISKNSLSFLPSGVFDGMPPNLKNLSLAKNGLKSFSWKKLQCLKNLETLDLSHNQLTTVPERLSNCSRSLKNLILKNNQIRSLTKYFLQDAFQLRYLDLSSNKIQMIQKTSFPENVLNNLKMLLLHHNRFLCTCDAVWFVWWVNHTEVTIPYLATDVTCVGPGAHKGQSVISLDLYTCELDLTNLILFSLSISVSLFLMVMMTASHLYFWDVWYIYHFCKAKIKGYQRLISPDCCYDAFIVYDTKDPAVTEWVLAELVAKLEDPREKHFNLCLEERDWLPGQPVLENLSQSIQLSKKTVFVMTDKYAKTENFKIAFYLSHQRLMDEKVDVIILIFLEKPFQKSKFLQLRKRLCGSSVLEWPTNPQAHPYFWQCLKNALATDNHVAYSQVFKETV
Briefly: Antagonist activity at human TLR7 expressed in human PBMC cells assessed as inhibition of ssRNA stimulated IFNalpha level preincubated for 30 mins followed by stimulation and measured after 20 hrs by AlphaLISA method. Format: cell-based. Background: Alpha assays give light when donor and acceptor beads are brought close together.

Series [11] concerns the target T1, Toll-like receptor 7. In words: Antagonist activity at human TLR7 expressed in human whole blood assessed as inhibition of ssRNA stimulated IFNalpha level preincubated for 30 mins followed by stimulation and measured after 20 hrs by AlphaLISA method. Format: tissue-based.
Series [12] concerns the target T2, Toll-like receptor 7 (Mus musculus, UniProt P58681).
T2 sequence (P58681 whole entry): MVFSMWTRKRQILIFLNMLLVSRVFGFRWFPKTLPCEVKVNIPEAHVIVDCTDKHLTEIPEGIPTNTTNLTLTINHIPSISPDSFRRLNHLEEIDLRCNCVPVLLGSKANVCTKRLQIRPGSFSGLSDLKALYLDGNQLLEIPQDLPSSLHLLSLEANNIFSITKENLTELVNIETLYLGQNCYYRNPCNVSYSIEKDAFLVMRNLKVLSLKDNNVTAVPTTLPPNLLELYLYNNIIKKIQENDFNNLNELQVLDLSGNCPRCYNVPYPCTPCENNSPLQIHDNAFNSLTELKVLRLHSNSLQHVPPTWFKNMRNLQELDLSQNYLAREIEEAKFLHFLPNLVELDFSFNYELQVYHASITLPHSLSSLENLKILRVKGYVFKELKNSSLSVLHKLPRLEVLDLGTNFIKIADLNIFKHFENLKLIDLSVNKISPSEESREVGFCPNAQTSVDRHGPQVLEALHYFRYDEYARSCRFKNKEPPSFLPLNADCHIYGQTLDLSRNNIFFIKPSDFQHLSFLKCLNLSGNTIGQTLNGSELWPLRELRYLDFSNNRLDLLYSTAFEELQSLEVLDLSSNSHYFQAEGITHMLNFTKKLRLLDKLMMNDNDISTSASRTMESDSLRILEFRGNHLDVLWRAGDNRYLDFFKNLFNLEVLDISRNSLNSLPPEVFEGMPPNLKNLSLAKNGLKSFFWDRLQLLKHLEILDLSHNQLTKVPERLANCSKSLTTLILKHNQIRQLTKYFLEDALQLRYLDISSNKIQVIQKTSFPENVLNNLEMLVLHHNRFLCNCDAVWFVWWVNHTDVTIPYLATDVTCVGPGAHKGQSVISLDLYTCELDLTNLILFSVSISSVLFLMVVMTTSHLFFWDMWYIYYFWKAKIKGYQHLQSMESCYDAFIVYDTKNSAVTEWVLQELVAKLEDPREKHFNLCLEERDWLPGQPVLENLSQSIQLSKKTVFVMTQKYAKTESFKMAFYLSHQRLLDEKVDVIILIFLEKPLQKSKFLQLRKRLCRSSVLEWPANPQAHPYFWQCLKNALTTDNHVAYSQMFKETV
Briefly: Antagonist activity at mouse TLR7 expressed in human whole blood assessed as inhibition of ssRNA stimulated IFNalpha level preincubated for 30 mins followed by stimulation and measured after 20 hrs by AlphaLISA method. Type of series: tissue-based.

Series [13] in a line: Drug exposure in 129Sv mouse blood at 0.1 mg/kg, po by LC-MS/MS analysis. Type of series: ADME, organism-based. The note with it: in vivo, read-out: Drug uptake.

Chain of Voltage-gated inwardly rectifying potassium channel KCNH2 (Q12809 whole entry): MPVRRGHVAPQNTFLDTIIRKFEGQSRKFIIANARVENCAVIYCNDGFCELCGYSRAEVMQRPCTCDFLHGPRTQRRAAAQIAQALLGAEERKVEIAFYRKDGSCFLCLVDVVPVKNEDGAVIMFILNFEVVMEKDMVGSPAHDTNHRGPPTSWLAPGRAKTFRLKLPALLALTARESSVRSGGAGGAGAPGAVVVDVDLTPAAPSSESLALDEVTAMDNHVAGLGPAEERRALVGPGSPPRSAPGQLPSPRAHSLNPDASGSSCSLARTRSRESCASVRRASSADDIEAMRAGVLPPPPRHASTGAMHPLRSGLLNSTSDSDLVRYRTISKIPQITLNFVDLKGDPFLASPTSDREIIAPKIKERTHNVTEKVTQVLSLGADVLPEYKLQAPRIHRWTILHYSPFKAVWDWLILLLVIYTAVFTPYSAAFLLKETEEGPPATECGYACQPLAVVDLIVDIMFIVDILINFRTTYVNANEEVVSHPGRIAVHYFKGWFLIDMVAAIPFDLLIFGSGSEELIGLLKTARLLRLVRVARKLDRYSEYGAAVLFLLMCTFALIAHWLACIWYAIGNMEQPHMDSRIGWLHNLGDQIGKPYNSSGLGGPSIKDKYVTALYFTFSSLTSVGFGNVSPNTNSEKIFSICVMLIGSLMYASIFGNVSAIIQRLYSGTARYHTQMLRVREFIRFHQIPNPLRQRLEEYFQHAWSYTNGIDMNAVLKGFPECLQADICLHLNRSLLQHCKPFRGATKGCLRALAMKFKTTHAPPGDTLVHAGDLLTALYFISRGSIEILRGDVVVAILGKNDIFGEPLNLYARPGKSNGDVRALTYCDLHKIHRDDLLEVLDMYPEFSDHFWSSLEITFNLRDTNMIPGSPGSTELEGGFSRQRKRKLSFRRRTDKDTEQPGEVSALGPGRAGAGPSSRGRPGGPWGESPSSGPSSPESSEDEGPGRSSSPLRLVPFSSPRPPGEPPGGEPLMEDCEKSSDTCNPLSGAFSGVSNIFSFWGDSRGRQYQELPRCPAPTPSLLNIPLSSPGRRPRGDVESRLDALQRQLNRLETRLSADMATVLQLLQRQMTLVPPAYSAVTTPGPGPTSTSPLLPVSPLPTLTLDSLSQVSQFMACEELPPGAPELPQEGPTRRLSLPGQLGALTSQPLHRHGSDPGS
Chain of Cytochrome P450 3A4 (P08684 whole entry): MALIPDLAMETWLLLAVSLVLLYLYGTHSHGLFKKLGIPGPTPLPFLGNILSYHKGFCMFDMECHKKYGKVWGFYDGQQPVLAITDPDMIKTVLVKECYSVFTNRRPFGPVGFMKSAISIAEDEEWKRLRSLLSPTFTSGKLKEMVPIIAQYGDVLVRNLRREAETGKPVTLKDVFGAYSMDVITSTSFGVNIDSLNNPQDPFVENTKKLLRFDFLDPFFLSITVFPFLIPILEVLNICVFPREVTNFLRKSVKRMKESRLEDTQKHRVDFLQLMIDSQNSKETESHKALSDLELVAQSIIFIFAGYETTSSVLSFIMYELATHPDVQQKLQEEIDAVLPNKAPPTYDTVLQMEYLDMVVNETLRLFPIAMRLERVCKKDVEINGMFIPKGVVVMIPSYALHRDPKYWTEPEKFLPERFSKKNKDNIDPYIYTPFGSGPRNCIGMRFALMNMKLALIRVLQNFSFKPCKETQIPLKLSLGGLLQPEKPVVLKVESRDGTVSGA

In the case of `Cc1cc(-c2cc3[nH]nc(N[C@@H]4CCNC[C@H]4F)c3cc2C2CC2)cc(C)n1`, the pKa in series [1] stood at 6.7. Besides, the logD at 4 h in series [2] worked out at 2.7. The IC50 is over 30000 nM in series [3]; over 25000 nM in [4]; 7 nM in [10]; 4.9 nM in series [11]; 2 nM in series [12]. In addition, the Cmax/dose in [5] amounted to 79 nM/mg/kg. In [6], this compound returned a bioavailability of 38%. Moreover, the clearance in series [7] turned out to be 55 mL/min/kg. The Vd in series [8] worked out at 8.4 L/kg. The MRT in series [9] stood at 2.5 h. Besides, in series [13], the concentration stood at 0.4 nM.

The pKa is the negative logarithm of the acid dissociation constant. The logD is the decadic logarithm of the distribution of all forms, ionised or not, between an organic phase and buffer at a given pH. Broadly, the IC50 is the concentration that inhibits the measured activity by half. What is called bioavailability is the share of a dose that reaches the circulation, judged against a reference dose that is usually intravenous. A low value points to little systemic uptake. As usually defined, the MRT is the average time that molecules of a dose stay in the body.

These data come from ChEMBL document CHEMBL5046316, “Structure-Based Optimization of a Fragment-like TLR8 Binding Screening Hit to an In Vivo Efficacious TLR7/8 Antagonist” (ACS Med Chem Lett, 2022).
